Laboratory results as given in PMC8286599 (Gut Pathogens, 2021).
In brackets after ≈: the same amount, converted by molar mass. Like-named read-outs stand apart in the source and are kept apart here.

Columns and labels:
[1] = test system: Salmonella Enteritidis strains; assay type: cell-based; note: key: S- Sensitive; I- Intermediate; R- Resistant
[2] = test system: EAEC strains; experiment: Antibiotic susceptibility testing; assay type: cell-based, enteroaggregative Escherichia coli; note: key: S- Sensitive; I- Intermediate; R- Resistant
Source text: Supplement 13099_2021_443_MOESM1_ESM.docx, table 1: Supplementary Table 1. Antibiotic susceptibility pattern of EAEC and NTS strains under study | column: Antibiotic Susceptibility testing

[3] = test system: Salmonella Typhimurium strains; assay type: cell-based; note: key: S- Sensitive; I- Intermediate; R- Resistant
[4] = test system: EAEC strains; experiment: MIC values of antibiotics; assay type: cell-based, enteroaggregative Escherichia coli

Compound	Antibiotic Susceptibility testing ([1]; strain S1)	Antibiotic Susceptibility testing ([1]; strain S2)	Antibiotic Susceptibility testing ([1]; strain S3)	Antibiotic Susceptibility testing ([2]; strain E1)	Antibiotic Susceptibility testing ([2]; strain E2)	Antibiotic Susceptibility testing ([2]; strain E3)	Antibiotic Susceptibility testing ([3]; strain ST1)	Antibiotic Susceptibility testing ([3]; strain ST2)	Antibiotic Susceptibility testing ([3]; strain ST3)	other results
CC1(C)S[C@@H]2[C@H](NC(=O)[C@H](N)c3ccccc3)C(=O)N2[C@H]1C(=O)O [AMP]	R	R	R	R	R	R	R	R	R	MIC ([4]; strain E1): >240 µM; MIC ([4]; strain E2): >240 µM; MIC ([4]; strain E3): >240 µM
C[C@H]1[C@H](NC(=O)/C(=N\OC(C)(C)C(=O)O)c2csc(N)n2)C(=O)N1S(=O)(=O)O [AT, Aztreonam]	S	S	S							
CC[C@H]1OC(=O)[C@H](C)[C@@H](O[C@H]2C[C@@](C)(OC)[C@@H](O)[C@H](C)O2)[C@H](C)[C@@H](O[C@@H]2O[C@H](C)C[C@H](N(C)C)[C@H]2O)[C@](C)(O)C[C@@H](C)CN(C)[C@H](C)[C@@H](O)[C@]1(C)O [AZM, Azithromycin]										Antibiotic Susceptibility testing [1]: S
O=C(N[C@H](CO)[C@H](O)c1ccc([N+](=O)[O-])cc1)C(Cl)Cl [C, Chloramphenicol]	R	S	S	S	S	S	R	R	R	MIC Values, class symbol printed instead of a number ([4]; strain E1): S; MIC Values, class symbol printed instead of a number ([4]; strain E2): S; MIC Values, class symbol printed instead of a number ([4]; strain E3): S
CC(C)(O/N=C(\C(=O)N[C@@H]1C(=O)N2C(C(=O)[O-])=C(C[n+]3ccccc3)CS[C@H]12)c1csc(N)n1)C(=O)O [CAZ]							S	R	I	
O=C(O)c1cn(C2CC2)c2cc(N3CCNCC3)c(F)cc2c1=O [CIP]				S	R	R	R	R	R	MIC ([4]; strain E2): 120 µM (≈ 39.8 µg/mL); MIC ([4]; strain E3): 60 µM (≈ 19.9 µg/mL)
COCC1=C(C(=O)O)N2C(=O)[C@@H](NC(=O)/C(=N\OC)c3csc(N)n3)[C@H]2SC1 [CPD, Cefpodoxime]	R	R	R							
CO/N=C(\C(=O)N[C@@H]1C(=O)N2C(C(=O)[O-])=C(C[N+]3(C)CCCC3)CS[C@H]12)c1csc(N)n1 [CPM]	S	S	S				S	S	S	
CCN1CCN(C(=O)N[C@@H](C(=O)N[C@@H]2C(=O)N3C(C(=O)O)=C(CSc4nnnn4C)CS[C@H]23)c2ccc(O)cc2)C(=O)C1=O [CPZ, Cefoperozone]	S	S	S							
CO/N=C(\C(=O)N[C@@H]1C(=O)N2C(C(=O)O)=C(COC(C)=O)CS[C@H]12)c1csc(N)n1 [CTR, Cefotaxime]				S	R	R	S	R	S	MIC ([4]; Escherichia coli, strain E2): > 240 µM; MIC Values, class symbol printed instead of a number ([4]; strain E1): S; MIC ([4]; strain E3): >240 µM
CO/N=C(\C(=O)N[C@@H]1C(=O)N2C(C(=O)O)=C(COC(C)=O)CS[C@H]12)c1csc(N)n1 [CTX]	S	S	S							
CO[C@@]1(NC(=O)Cc2cccs2)C(=O)N2C(C(=O)O)=C(COC(N)=O)CS[C@@H]21 [CX]										Antibiotic Susceptibility testing [1]: S; Antibiotic Susceptibility testing [3]: S and R and I
Cc1nnc(SCC2=C(C(=O)O)N3C(=O)[C@@H](NC(=O)Cn4cnnn4)[C@H]3SC2)s1 [CZ]							S	S	S	
C[C@@H](O)[C@H]1C(=O)N2C(C(=O)O)=C(SCCN=CN)C[C@H]12 [IMI, Imipenem]				S	S	S				MIC Values, class symbol printed instead of a number ([4]; strain E1): S; MIC Values, class symbol printed instead of a number ([4]; strain E2): S; MIC Values, class symbol printed instead of a number ([4]; strain E3): S
C[C@@H](O)[C@H]1C(=O)N2C(C(=O)O)=C(SCCN=CN)C[C@H]12 [IPM]							S	S	S	
NC[C@H]1O[C@H](O[C@H]2[C@H](O)[C@@H](O[C@H]3O[C@H](CO)[C@@H](O)[C@H](N)[C@H]3O)[C@H](N)C[C@@H]2N)[C@H](O)[C@@H](O)[C@@H]1O [K, Kanamycin]	R	S	S							
C[C@H]1COc2c(N3CCN(C)CC3)c(F)cc3c(=O)c(C(=O)O)cn1c23 [LE, Levofloxacin]							R	R	I	
C[C@@H](O)[C@H]1C(=O)N2C(C(=O)O)=C(S[C@@H]3CN[C@H](C(=O)N(C)C)C3)[C@H](C)[C@H]12 [MRP, Meropenem]	S	S	S							
CCn1cc(C(=O)O)c(=O)c2ccc(C)nc21 [NA, Nalidicic Acid]	R	R	R				R	R	I	
O=C1CN(/N=C/c2ccc([N+](=O)[O-])o2)C(=O)N1 [NIT, Nitrofurantoin]										Antibiotic Susceptibility testing [1]: S and R
Nc1ccc(S(=O)(=O)Nc2ncccn2)cc1 [SD, Sulfadiazine]										Antibiotic Susceptibility testing [1]: R
Cc1noc(NS(=O)(=O)c2ccc(N)cc2)c1C [SF, Sulphafurazole]	S	R	S							
Cc1cc(NS(=O)(=O)c2ccc(N)cc2)no1 [SXT, Sulfamethoxazole]				R	S	R				
CN(C)[C@@H]1C(O)=C(C(N)=O)C(=O)[C@@]2(O)C(O)=C3C(=O)c4c(O)cccc4[C@@](C)(O)[C@H]3C[C@@H]12 [TE]	R	S	S	R	R	R	R	R	R	MIC ([4]; strain E1): 60 µM (≈ 26.7 µg/mL); MIC ([4]; strain E2): 2 µM (≈ 0.889 µg/mL); MIC ([4]; strain E3): 30 µM (≈ 13.3 µg/mL)
Colistin sulphate				S	S	S				MIC Values, class symbol printed instead of a number ([4]; strain E1): S; MIC Values, class symbol printed instead of a number ([4]; strain E2): S; MIC Values, class symbol printed instead of a number ([4]; strain E3): S
